Three molecules from patent publication US20250298028A1, “METHOD FOR SCREENING DRUGS FOR TREATING MULTIPLE-VARIANT CORONAVIRUS DISEASE” (KOREA UNIVERSITY RESEARCH AND BUSINESS FOUNDATION, priority 2022, published 2025) can be followed below.

Molecules are shown by their SMILES.

Assay [1] has as its target T1, main protease (M^pro) of SARS-COV-2 (Severe acute respiratory syndrome coronavirus 2, UniProt P0DTD1). Description: TEM observation of the reaction of MCAP-AuNP with M^pro after M^pro inhibitor treatment. The class given is biochemical. Conditions: TEM images, FIG. 10B-10D.
The target in assay [2] is T1, main protease (M^pro) of SARS-COV-2. Description: biochemical.

With `COc1ccc([C@@H]2CC(=O)c3c(O)cc(O)cc3O2)cc1O` [hesperetin], the “activity of M^pro after M^pro inhibitor treatment (effect on MCAP-AuNP, TEM image)” value in assay [1] is reported as “inhibited”. Also, the IC50 (usually the concentration needed to halve the response being measured) in assay [2] was 43.1 µM.

As for `Cc1cccc(C)c1OCC(=O)N[C@@H](Cc1ccccc1)[C@@H](O)C[C@H](Cc1ccccc1)NC(=O)[C@H](C(C)C)N1CCCNC1=O` [lopinavir], the “activity of M^pro after M^pro inhibitor treatment (effect on MCAP-AuNP, TEM image)” value in assay [1] is “inhibited”. The IC50 in assay [2] came to 10.7 µM.

Consider `CC(=O)N[C@@H](CC(C)C)C(=O)N[C@@H](CC(C)C)C(=O)N[C@H](C=O)CCCNC(=N)N` [leupeptin], for which the “activity of M^pro after M^pro inhibitor treatment (effect on MCAP-AuNP, TEM image)” value in assay [1] was “inhibited”. The molecule further registered an IC50 in assay [2] of 28.6 µM.
